In patent US10421755B2, “Salts of aza-bicyclic di-aryl ethers and methods to make them or their precursors” (Novartis AG, priority 2011, dated 2019):
Where “and” joins values, the source holds several entries; their conditions need not be identical. Equal entries are not always repeated.

How the values were obtained:
[1] = Known multiple solid forms; assay type: physicochemical; conditions: comparison table, Example 7
[2] = Hygroscopicity (moisture gain at relative humidity); assay type: physicochemical; parameters: Hygroscopy @ 85% RH: unit not given here
[3] = Stability in buffer solutions and in solid state; assay type: physicochemical
[4] = Loss on drying / initial water content; assay type: physicochemical; parameters: Initial water content: unit not given here
[5] = Stability of the active ingredient in tablets; assay type: physicochemical; conditions: tablets where only certain lubricants are used
Protocol: It is particularly important that the active ingredient remains chemically stable over a potential long shelf time. When assessing storage stability, relative amounts of individual degradation products compared to the total amount of active ingredient are taken into consideration. Individual degradation products should all be present in low relative amounts to ensure that no single product can reach a non-acceptable level, e.g. when the active ingredient is administered in high doses.

[6] = Decomposition temperature; assay type: physicochemical; parameters: unit not given here; conditions: comparison table, Example 7
[7] = Oral bioavailability in dogs; assay type: in vivo, beagle dogs; conditions: 1.4 μmol/kg p.o.
Protocol: Assay: The compound was given to N=3 male beagle dogs in tritiated form:
The concentration of the compound in blood was determined by LC-RID. The procedure involved the addition of 5 μg of the compound as internal standard (200 μL of solution containing 25 μg/mL of the compound) to 1 mL of blood. After further addition of 1 mL of water, 0.1 mL of buffer pH 9 and 4 mL of tert-butylmethylether, the samples were shaken for 30 min and centrifuged (4000 g for 10 min at 22° C.). The organic phase was transferred into a tube and evaporated in a Speedvac. The residue was reconstituted in 250 μL of mobile phase-water (80:20 v/v) followed by 75 μL of n-hexane and transferred into an autosampler vial. After centrifugation (13,000 g for 2 min at 22° C.), the hexane layer was pipetted off and discarded, 200 μL of the remainder was injected onto an RP18 column (Waters XTerra, 5 μm, 3.9×150 mm at 40° C.) to separate the compound from potential metabolites and endogenous compounds. The mobile phase of ammonium acetate (10 mM: 0.1% v/v TFA-acetonitrile, 58:42 v/v) was used at a flow rate of 1.0 mL/min. The effluent was monitored by a UV-detector set at 261 nm. The peak corresponding to the unchanged compound was collected in a polyethylene vial by a fraction collector (SuperFrac, Pharmacia LKB) and analyzed for radioactivity. The concentration of the compound in each sample was calculated from the ratio of the amount of radioactivity in the eluate fraction to the area of the ultraviolet absorbance of the non-radiolabeled the compound, that was used as the internal standard.

[8] = Particle size measurements by Fraunhofer light diffraction; assay type: physicochemical; conditions: N=8
Protocol: Mean particle sizes, X90 and X10 are typically measured by Fraunhofer light diffraction.
To about 0.5 g of test substance add some drops of the dispersing aid (1% Octastat 5000 (Octel Corp.) in white spirit (Sangajol, Schweizerhall Chemie)). Mix intensively on a vortex mixer, in order to wet the substance thoroughly and to form a smooth and homogeneous paste. Dilute the paste with white spirit to a final volume of 3-6 ml and mix the dispersion again. Determine the cumulative volume distribution using a laser diffraction instrument, e.g. determine the particle sizes at the undersize values of 10%, 50% and 90% (x10, x50, x90). Measuring device: Sympatec HELOS (Sympatec GmbH; focal length: 500 mm, optical concentration≥5%, duration of measurement: 40 sec).
Dispersion device: Suspension cell (QUIXEL, Sympatec GmbH).

[9] = Pharmacokinetics in rats after oral administration; assay type: in vivo, Wistar rats; conditions: 10 mg/kg oral
Protocol: If a salt forming agent is used (e.g. fumarate), a corresponding higher amount of the salt will be used to achieve the intended dosing.
Both compounds were dissolved in Klucel™ (0.5% in water) and were orally administered by gavage (5 ml/kg) to conscious rats (n=8, cross-over design).
K3-EDTA blood (˜0.2 ml) was collected by puncture of a sublingual vein under light isoflurane anesthesia at the following time points: 0.25, 0.5, 1, 2, 3, 4, 6, 8, 24 h post dose. Immediately after sampling, blood samples were put on ice and were processed to plasma by centrifugation at 4° C. within 15 min after sampling (1000 g, 10 min, 4° C.) to obtain ˜100 μl plasma/sample. All plasma samples were stored at −80° C. until analysis. Since the PK study was performed in a cross-over design, a recovery period of approximately 2 weeks took place before the next treatment/blood sampling was performed.
The determination of compounds in plasma was done by LC-MS/MS using electrospray ionization.

[10] = male Wistar rats (n=8), mean (text: ± SD)
[11] = male Wistar rats, individual rats 01-08, listed as mono-fumarate, 10 mg/kg

Cc1ccc(-c2ccc(O[C@H]3CN4CCC3CC4)cn2)cc1.O=C(O)/C=C/C(=O)O [Compound B, (R)-3-(6-(4-methylphenyl)-pyridin-3-yloxy)-1-aza-bicyclo[2.2.2]octane hydrogenfumarate]
Known Multiple forms [1]: No
hygroscopicity (in words) [2]: slightly hygroscopic
moisture gain ([2]; at 85% relative humidity (RH)): 0.5%
Hygroscopy @ 85% RH ([2]; comparison table, Example 7): 0.5
solid-state stability [3]: good
stability in buffer solutions ([3]; many buffer solutions, various pH values): good stability
Loss on drying (LOD) of a sample [4]: < 0.03%
Initial water content ([4]; comparison table, Example 7): <0.5
stability in tablets [5]: very stable
Decomposition temperature [6]: 207
Plasma (pmoles/ml ± SD) ([7]; 0.25 hour): 14.7 ± 1.1 pmol/mL
Plasma (pmoles/ml ± SD) ([7]; 0.5 hour): 49.4 ± 21.9 pmol/mL
Plasma (pmoles/ml ± SD) ([7]; 1 hour): 67.6 ± 22.6 pmol/mL
Plasma (pmoles/ml ± SD) ([7]; 2 hour): 75.2 ± 36.8 pmol/mL
Plasma (pmoles/ml ± SD) ([7]; 4 hour): 27.5 ± 13.3 pmol/mL
Plasma (pmoles/ml ± SD) ([7]; 8 hour): 8.1 ± 3.0 pmol/mL
Plasma (pmoles/ml ± SD) ([7]; 24 hour): 0.8 ± 0.7 pmol/mL
particle size x10 [8]: 5.6±0.5 μm
particle size x50 (mean particle size) [8]: 26.8±1.3 μm
particle size x90 [8]: 77.3±3.3 μm
Concentration of free form in plasma, Mean All ([9]; male Wistar rats (n=8), 0.25 h, mean): 149 ng/mL
Concentration of free form in plasma, Mean All ([9]; male Wistar rats (n=8), 0.5 h, mean): 132 ng/mL
Concentration of free form in plasma, Mean All ([9]; male Wistar rats (n=8), 1 h, mean): 77.4 ng/mL
Concentration of free form in plasma, Mean All ([9]; male Wistar rats (n=8), 2 h, mean): 38.9 ng/mL
Concentration of free form in plasma, Mean All ([9]; male Wistar rats (n=8), 3 h, mean): 19.5 ng/mL
Concentration of free form in plasma, Mean All ([9]; male Wistar rats (n=8), 4 h, mean): 10.6 ng/mL
Concentration of free form in plasma, Mean All ([9]; male Wistar rats (n=8), 6 h, mean): 5.10 ng/mL
Concentration of free form in plasma, Mean All ([9]; male Wistar rats (n=8), 8 h, mean): 2.54 ng/mL
Concentration of free form in plasma, Mean All ([9]; male Wistar rats (n=8), 24 h, mean): 0.320 ng/mL
Tmax (h), all rats ([9]; male Wistar rats (n=8), Median [range], listed as mono-fumarate): 0.25 [0.25-0.50]^a h
Cmax/Dose (ng/mL)/(mg/kg), Mean All ([9]; male Wistar rats (n=8), mean): 16.5 (ng/mL)/(mg/kg)
AUClast (h · ng/mL), Mean All [9, 10]: 249 ± 42 ng·h/mL
Cmax (ng/mL), Mean All [9, 10]: 161 ± 53 ng/mL
Concentration of free form in plasma ([9]; male Wistar rats, 0.25 h, individual rats 01-08): 89.0 ng/mL
Concentration of free form in plasma ([9]; male Wistar rats, 0.25 h, individual rats 01-08, listed as mono-fumarate, 10 mg/kg): 167 ng/mL and 162 ng/mL and 77.8 ng/mL and 242 ng/mL and 204 ng/mL and 93.3 ng/mL and 153 ng/mL
Concentration of free form in plasma ([9]; male Wistar rats, 0.5 h, individual rats 01-08): 130 ng/mL
Concentration of free form in plasma ([9]; male Wistar rats, 0.5 h, individual rats 01-08, listed as mono-fumarate, 10 mg/kg): 104 ng/mL and 78.4 ng/mL and 99.7 ng/mL and 143 ng/mL and 179 ng/mL and 184 ng/mL and 138 ng/mL
Concentration of free form in plasma ([9]; male Wistar rats, 1 h, individual rats 01-08, listed as mono-fumarate, 10 mg/kg): 67.1 ng/mL and 88.8 ng/mL and 41.3 ng/mL and 62.8 ng/mL and 83.2 ng/mL and 80.8 ng/mL and 101 ng/mL and 94.2 ng/mL
Concentration of free form in plasma ([9]; male Wistar rats, 2 h, individual rats 01-08, listed as mono-fumarate, 10 mg/kg): 27.4 ng/mL and 39.2 ng/mL and 37.8 ng/mL and 24.6 ng/mL and 47.1 ng/mL and 37.6 ng/mL and 54.8 ng/mL and 42.6 ng/mL
Concentration of free form in plasma ([9]; male Wistar rats, 3 h, individual rats 01-08, listed as mono-fumarate, 10 mg/kg): 12.4 ng/mL and 17.7 ng/mL and 25.3 ng/mL and 11.7 ng/mL and 19.6 ng/mL and 20.6 ng/mL and 25.1 ng/mL and 23.2 ng/mL
Concentration of free form in plasma ([9]; male Wistar rats, 4 h, individual rats 01-08, listed as mono-fumarate, 10 mg/kg): 9.06 ng/mL and 10.6 ng/mL and 13.3 ng/mL and 5.90 ng/mL and 9.71 ng/mL and 11.8 ng/mL and 13.0 ng/mL and 11.1 ng/mL
Concentration of free form in plasma ([9]; male Wistar rats, 6 h, individual rats 01-08, listed as mono-fumarate, 10 mg/kg): 7.49 ng/mL and 3.47 ng/mL and 7.63 ng/mL and 5.79 ng/mL and 4.29 ng/mL and 4.24 ng/mL and 4.05 ng/mL and 3.87 ng/mL
Concentration of free form in plasma ([9]; male Wistar rats, 8 h, individual rats 01-08, listed as mono-fumarate, 10 mg/kg): 2.91 ng/mL and 2.35 ng/mL and 3.62 ng/mL and 2.62 ng/mL and 2.46 ng/mL and 1.94 ng/mL and 2.38 ng/mL and 2.07 ng/mL
AUClast [9, 11]: 202 ng·h/mL and 259 ng·h/mL and 212 ng·h/mL and 188 ng·h/mL and 269 ng·h/mL and 292 ng·h/mL and 298 ng·h/mL and 272 ng·h/mL
Cmax [9, 11]: 167 ng/mL and 162 ng/mL and 78.4 ng/mL and 99.7 ng/mL and 242 ng/mL and 204 ng/mL and 184 ng/mL and 153 ng/mL
Cmax/Dose (ng/mL)/(mg/kg) [9, 11]: 17.2 (ng/mL)/(mg/kg) and 16.4 (ng/mL)/(mg/kg) and 7.88 (ng/mL)/(mg/kg) and 10.2 (ng/mL)/(mg/kg) and 25.2 (ng/mL)/(mg/kg) and 21.1 (ng/mL)/(mg/kg) and 18.3 (ng/mL)/(mg/kg) and 15.7 (ng/mL)/(mg/kg)
Tlast [9, 11]: 8.0 h (2×) and 24.0 h (6×)
Tmax [9, 11]: 0.25 h (5×) and 0.50 h (3×)
T½ [9, 11]: 2.44 h and 5.02 h and 3.62 h and 3.71 h and 2.02 h and 3.97 h and 5.51 h
T½ (h), Mean All ([9]; male Wistar rats, mean): 3.76 h
